Assay results: ChEMBL document CHEMBL3232714, “Antiparasitic chaiyaphumines from entomopathogenic Xenorhabdus sp. PB61.4” (J Nat Prod, 2014)
The source made the active and inactive calls. No cut-off for these calls is given here.

Columns and labels:
[1] = test system: Trypanosoma brucei rhodesiense; test: Antitrypanosomal activity against bloodstream forms of Trypanosoma brucei rhodesiense STIB900; format: functional, organism-based
[2] = test system: Trypanosoma cruzi; test: Antitrypanosomal activity against trypomastigote forms of Trypanosoma cruzi Tulahuen C4; format: functional, organism-based
[3] = test system: Plasmodium falciparum; test: Antiplasmodial activity against erythrocytic stages of Plasmodium falciparum NF54; format: functional, organism-based
[4] = test system: L6; test: Cytotoxicity against rat L6 cells; format: cell-based
[5] = Selectivity index, ratio of IC50 for rat L6 cells to IC50 for erythrocytic stages of Plasmodium falciparum NF54; format: toxicity, cell-based; conditions: read-out: Ratio IC50
[6] = test system: Escherichia coli; test: Antibacterial activity against Escherichia coli DH10B by agar diffusion assay; format: functional; conditions: K-12 substr. DH10B
[7] = test system: Bacillus subtilis; test: Antibacterial activity against Bacillus subtilis by agar diffusion assay; format: functional, organism-based
[8] = test system: Micrococcus luteus; test: Antibacterial activity against Micrococcus luteus by agar diffusion assay; format: functional, organism-based
[9] = test system: Saccharomyces cerevisiae; test: […] activity against Saccharomyces cerevisiae by agar diffusion assay; format: functional, organism-based

Row | IC50 [1] | IC50 [2] | IC50 [3] | SMILES | IC50 [4] | selectivity ratio [5] | Activity [6] | Activity [7] | Activity [8] | Activity [9]
1 | 5.11 µM | 56.4 µM | 0.61 µM | C[C@H]1NC(=O)[C@@H](Cc2ccccc2)NC(=O)[C@@H](NC(=O)Cc2ccccc2)[C@@H](C)OC(=O)[C@H](Cc2c[nH]c3ccccc23)NC(=O)[C@@H]2CCCN2C1=O | 92.2 µM | > 151 | inactive | inactive | inactive | inactive
2 | 77.6 µM | 98.9 µM | 15.4 µM | CCC(=O)N[C@@H]1C(=O)N[C@H](Cc2ccccc2)C(=O)N[C@H](C)C(=O)N2CCC[C@H]2C(=O)N[C@@H](Cc2c[nH]c3ccccc23)C(=O)O[C@@H]1C | > 151 µM | – | inactive | inactive | inactive | inactive

Row | SMILES | IC50 [1] | IC50 [2] | IC50 [3] | IC50 [4] | selectivity ratio [5] | Activity [6] | Activity [7] | Activity [8] | Activity [9]
3 | O=C(Cn1ccnc1[N+](=O)[O-])NCc1ccccc1 [BENZNIDAZOLE] | – | 1.73 µM | – | – | – | – | – | – | –
